# Source: publication PMC10897480, “Molecular details of ruthenium red pore block in TRPV channels” (EMBO Reports, 2024)
# T1: TRPV2 (Rattus norvegicus, UniProt Q9WUD2, E609Q)
# T1 construct: rat TRPV2 expressed in HEK293T cells
# T1 sequence (Q9WUD2 1-761 E609Q): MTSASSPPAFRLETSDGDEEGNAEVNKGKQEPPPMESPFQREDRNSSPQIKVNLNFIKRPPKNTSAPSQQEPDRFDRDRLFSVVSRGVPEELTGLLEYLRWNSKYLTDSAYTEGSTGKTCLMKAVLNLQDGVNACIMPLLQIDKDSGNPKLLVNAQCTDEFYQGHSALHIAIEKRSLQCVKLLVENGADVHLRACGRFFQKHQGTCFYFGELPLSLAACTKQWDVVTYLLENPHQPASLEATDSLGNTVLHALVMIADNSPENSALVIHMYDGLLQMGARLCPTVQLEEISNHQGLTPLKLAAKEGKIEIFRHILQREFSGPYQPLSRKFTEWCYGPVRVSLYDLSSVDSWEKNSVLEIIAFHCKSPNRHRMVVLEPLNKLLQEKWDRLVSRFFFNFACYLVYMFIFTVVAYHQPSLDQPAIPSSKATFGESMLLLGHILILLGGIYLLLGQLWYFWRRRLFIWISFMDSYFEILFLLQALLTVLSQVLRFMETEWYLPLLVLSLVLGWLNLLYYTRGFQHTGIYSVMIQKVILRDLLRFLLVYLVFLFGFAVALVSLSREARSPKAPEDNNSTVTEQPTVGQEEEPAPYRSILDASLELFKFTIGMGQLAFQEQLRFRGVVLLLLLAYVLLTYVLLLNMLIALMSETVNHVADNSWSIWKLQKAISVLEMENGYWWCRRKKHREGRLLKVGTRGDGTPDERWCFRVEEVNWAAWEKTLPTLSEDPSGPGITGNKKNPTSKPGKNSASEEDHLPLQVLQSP
# T2: TRPV5 (Oryctolagus cuniculus, UniProt Q9XSM3)
# T2 construct: wild-type rabbit TRPV5, C-terminal 1D4 tag, in nanodiscs
# T2 sequence (Q9XSM3 1-730): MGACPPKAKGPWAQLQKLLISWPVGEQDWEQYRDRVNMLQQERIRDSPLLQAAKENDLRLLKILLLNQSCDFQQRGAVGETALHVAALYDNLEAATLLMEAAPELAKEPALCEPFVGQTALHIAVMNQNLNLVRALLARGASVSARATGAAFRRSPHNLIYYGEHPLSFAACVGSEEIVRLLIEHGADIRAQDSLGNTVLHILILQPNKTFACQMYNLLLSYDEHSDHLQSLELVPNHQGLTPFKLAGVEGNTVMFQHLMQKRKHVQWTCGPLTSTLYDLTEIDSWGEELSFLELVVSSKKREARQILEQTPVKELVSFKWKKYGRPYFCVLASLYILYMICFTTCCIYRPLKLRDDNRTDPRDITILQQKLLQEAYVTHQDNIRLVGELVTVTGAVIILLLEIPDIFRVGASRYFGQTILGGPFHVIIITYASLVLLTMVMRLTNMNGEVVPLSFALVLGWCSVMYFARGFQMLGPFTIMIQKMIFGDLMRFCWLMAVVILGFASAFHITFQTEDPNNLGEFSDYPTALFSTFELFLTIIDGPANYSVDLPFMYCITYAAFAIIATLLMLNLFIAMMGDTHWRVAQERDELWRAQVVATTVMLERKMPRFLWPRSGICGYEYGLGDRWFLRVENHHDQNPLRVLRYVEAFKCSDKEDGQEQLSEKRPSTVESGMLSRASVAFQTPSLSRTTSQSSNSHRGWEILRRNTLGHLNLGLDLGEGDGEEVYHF
# T3: TRPV5 (Oryctolagus cuniculus, UniProt Q9XSM3, T539A)
# T3 construct: rabbit TRPV5 expressed in HEK293T cells
# T3 sequence (Q9XSM3 1-730 T539A): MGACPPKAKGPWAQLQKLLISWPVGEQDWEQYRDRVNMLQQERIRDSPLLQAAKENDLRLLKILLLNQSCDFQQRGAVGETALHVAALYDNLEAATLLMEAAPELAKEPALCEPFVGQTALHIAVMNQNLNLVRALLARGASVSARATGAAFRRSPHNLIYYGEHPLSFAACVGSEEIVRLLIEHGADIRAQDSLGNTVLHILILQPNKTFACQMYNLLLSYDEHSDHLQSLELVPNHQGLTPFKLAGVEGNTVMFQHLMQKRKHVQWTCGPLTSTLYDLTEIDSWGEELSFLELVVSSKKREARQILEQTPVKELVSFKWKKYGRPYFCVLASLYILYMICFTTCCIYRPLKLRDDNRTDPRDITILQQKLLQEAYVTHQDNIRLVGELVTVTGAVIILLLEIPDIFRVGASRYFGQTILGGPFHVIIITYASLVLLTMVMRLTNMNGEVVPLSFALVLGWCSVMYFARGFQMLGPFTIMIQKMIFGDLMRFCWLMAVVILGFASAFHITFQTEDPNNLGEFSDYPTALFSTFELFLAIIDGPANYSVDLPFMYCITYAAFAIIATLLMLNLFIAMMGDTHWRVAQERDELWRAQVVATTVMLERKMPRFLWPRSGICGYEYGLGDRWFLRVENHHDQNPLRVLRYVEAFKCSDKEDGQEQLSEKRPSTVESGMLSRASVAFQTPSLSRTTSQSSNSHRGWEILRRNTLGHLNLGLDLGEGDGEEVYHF
# T4: TRPV2 (Rattus norvegicus, UniProt Q9WUD2)
# T4 construct: wild-type rat TRPV2, C-terminal 1D4 tag, in nanodiscs
# T4 sequence (Q9WUD2 1-761): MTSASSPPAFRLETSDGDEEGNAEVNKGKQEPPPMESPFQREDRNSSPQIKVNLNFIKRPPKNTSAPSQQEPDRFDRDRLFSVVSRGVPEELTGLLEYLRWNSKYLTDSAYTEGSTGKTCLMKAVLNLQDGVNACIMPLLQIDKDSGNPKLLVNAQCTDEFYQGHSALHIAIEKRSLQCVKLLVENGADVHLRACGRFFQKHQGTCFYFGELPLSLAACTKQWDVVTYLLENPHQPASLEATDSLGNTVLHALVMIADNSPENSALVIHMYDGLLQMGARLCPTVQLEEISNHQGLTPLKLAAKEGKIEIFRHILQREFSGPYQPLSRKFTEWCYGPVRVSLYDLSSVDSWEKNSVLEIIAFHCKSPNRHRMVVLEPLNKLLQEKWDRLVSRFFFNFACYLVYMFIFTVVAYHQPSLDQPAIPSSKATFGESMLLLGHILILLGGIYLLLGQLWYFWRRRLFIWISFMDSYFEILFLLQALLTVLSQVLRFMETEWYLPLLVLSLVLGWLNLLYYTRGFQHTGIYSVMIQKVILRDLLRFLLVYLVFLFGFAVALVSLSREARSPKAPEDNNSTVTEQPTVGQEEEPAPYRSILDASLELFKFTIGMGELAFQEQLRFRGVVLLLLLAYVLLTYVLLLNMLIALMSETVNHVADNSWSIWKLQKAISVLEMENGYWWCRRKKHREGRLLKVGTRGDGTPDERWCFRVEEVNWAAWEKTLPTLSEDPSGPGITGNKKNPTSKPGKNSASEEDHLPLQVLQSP
# T5: TRPV2 (Rattus norvegicus, UniProt Q9WUD2, M607I)
# T5 construct: rat TRPV2 expressed in HEK293T cells
# T5 sequence (Q9WUD2 1-761 M607I): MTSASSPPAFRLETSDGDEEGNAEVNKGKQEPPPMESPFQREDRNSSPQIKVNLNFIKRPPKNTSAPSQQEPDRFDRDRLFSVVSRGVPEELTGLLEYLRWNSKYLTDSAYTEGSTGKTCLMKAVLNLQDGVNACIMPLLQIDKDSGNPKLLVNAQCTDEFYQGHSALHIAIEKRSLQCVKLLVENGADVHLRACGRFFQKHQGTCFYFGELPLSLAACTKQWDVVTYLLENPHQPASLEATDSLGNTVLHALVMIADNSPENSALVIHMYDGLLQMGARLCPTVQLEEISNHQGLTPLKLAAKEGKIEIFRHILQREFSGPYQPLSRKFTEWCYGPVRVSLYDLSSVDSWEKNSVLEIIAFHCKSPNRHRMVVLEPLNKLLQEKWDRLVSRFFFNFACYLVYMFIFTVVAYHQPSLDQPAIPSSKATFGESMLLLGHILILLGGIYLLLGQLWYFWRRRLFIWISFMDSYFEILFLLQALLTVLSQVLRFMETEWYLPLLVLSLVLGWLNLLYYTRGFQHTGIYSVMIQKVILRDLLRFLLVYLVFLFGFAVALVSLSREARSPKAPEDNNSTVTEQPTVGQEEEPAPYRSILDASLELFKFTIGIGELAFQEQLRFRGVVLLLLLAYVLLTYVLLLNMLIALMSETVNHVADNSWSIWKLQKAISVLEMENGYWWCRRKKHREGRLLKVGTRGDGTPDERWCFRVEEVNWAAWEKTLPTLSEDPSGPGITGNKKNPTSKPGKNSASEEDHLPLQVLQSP
# Columns and labels:
# TRPV2 [1] = target: T1, TRPV2; assay: whole-cell patch clamp, inhibition of 2-APB-induced currents; assay type: cell-based
# TRPV5 [2] = target: T2, TRPV5; assay: cryo-EM structures (8FFQ with PI([…])P2 added, […] Å; 8FFN without, […] Å); IC50 from whole-cell patch clamp in HEK293 cells; assay type: cell-based
# TRPV5 [3] = target: T3, TRPV5; assay: whole-cell patch clamp, % inhibition at […] RR ([…] at […]); assay type: cell-based
# TRPV2 [4] = target: T4, TRPV2; assay: cryo-EM structure ([…] Å, with 2-APB); IC50 from whole-cell patch clamp in HEK293T cells; assay type: cell-based
# TRPV2 [5] = target: T5, TRPV2; assay: whole-cell patch clamp, inhibition of 2-APB-induced currents; assay type: cell-based
# TRPV2 [6] = target: T4, TRPV2; assay: cryo-EM structure ([…] Å, with RR); activates whole-cell currents at […]
# [7] = target: the molecule itself; assay: cryo-EM structure; channel tetramer in MSP2N2/soy polar lipid nanodiscs, 20 mM Hepes pH 8.0, 150 mM NaCl, 2 mM TCEP; with 1 mM ruthenium red, with or without activator (1 mM 2-APB for TRPV2; 400 uM diC8-PI(4,5)P2 for TRPV5)
molecule,measurement,setting,value
"N.N.N.N.N.N.N.N.N.N.N.N.N.N.[Cl-].[Cl-].[Cl-].[Cl-].[Cl-].[Cl-].[O-2].[O-2].[Ru+3].[Ru+3].[Ru+4] [RR, ruthenium red]",IC50,TRPV2 [1],149 ± 111 µM
same,IC50,TRPV5 [2],0.0137 ± 0.0044 µM
same,% inhibition at 10 μM,TRPV5 [3],94.5 ± 1.5
same,IC50,TRPV2 [4],0.159 ± 0.047 µM
same,IC50,TRPV2 [5],29 ± 5 µM
"NCCOB(c1ccccc1)c1ccccc1 [2-APB, 2-aminoethoxydiphenyl borate]",cryo-EM structural observation,TRPV2 [6],clear three-lobed density for 2-APB coordinated by His521 and Arg539
"wild-type rabbit TRPV5 (natural protein, Transient receptor potential vanilloid 5 (TRPV5), rabbit, wild type; Homotetramer ('TRPV tetramer', C4 symmetry); No step that removes the 1D4 tag is described; also called rbTRPV5; TRPV5RR; source: S. cerevisiae BJ5457, purified (1D4 antibody beads, eluted with 1D4 peptide; reconstituted into MSP2N2 nanodiscs; SEC)) MGACPPKAKGPWAQLQKLLISWPVGEQDWEQYRDRVNMLQQERIRDSPLLQAAKENDLRLLKILLLNQSCDFQQRGAVGETALHVAALYDNLEAATLLMEAAPELAKEPALCEPFVGQTALHIAVMNQNLNLVRALLARGASVSARATGAAFRRSPHNLIYYGEHPLSFAACVGSEEIVRLLIEHGADIRAQDSLGNTVLHILILQPNKTFACQMYNLLLSYDEHSDHLQSLELVPNHQGLTPFKLAGVEGNTVMFQHLMQKRKHVQWTCGPLTSTLYDLTEIDSWGEELSFLELVVSSKKREARQILEQTPVKELVSFKWKKYGRPYFCVLASLYILYMICFTTCCIYRPLKLRDDNRTDPRDITILQQKLLQEAYVTHQDNIRLVGELVTVTGAVIILLLEIPDIFRVGASRYFGQTILGGPFHVIIITYASLVLLTMVMRLTNMNGEVVPLSFALVLGWCSVMYFARGFQMLGPFTIMIQKMIFGDLMRFCWLMAVVILGFASAFHITFQTEDPNNLGEFSDYPTALFSTFELFLTIIDGPANYSVDLPFMYCITYAAFAIIATLLMLNLFIAMMGDTHWRVAQERDELWRAQVVATTVMLERKMPRFLWPRSGICGYEYGLGDRWFLRVENHHDQNPLRVLRYVEAFKCSDKEDGQEQLSEKRPSTVESGMLSRASVAFQTPSLSRTTSQSSNSHRGWEILRRNTLGHLNLGLDLGEGDGEEVYHF",binding result,[7],binds
